Source: patent publication US20120064180A1, “USE OF NO AND NO DONORS FOR TERMINATING DORMANCY IN INVERTEBRATES” (UNIVERSITEIT GENT, priority 2009, published 2012)

Legend:
[1] = tested on: Bolshoye Yarovoye Artemia cysts (ARC BY 1706); experiment: Post-diapause development of Bolshoye Yarovoye strain encysted Artemia embryos with NO donors; format: in vivo
Procedure: Encysted embryos (cysts) from a parthenogenetic strain of Artemia obtained in winter 2005-2006 in Bolshoye Yarovoye (Altay Region: 52° 51′64″ N-78° 37′32″ E), Russia (Artemia Reference Center (ARC) code number BY 1706), were stored in the dark at 4° C. in dry sealed bags. For the experiment, the cysts were grown at 26-28° C. with constant illumination in 25 ml of sea water under varying experimental conditions as detailed below.
To quantify larval (nauplii) emergence and hatching (FIG. 1) which served as measures of cyst development, 6 samples of 250 μl from each 50 ml tube were mixed individually with 250 μl of sea water and 2 drops of Lugol's solution (Van Stappen, G, 1996) prior to counting nauplii (N) and umbrella (U) with the aid of a dissecting microscope. […] The extent of development was determined as the percent of developed cysts which was calculated as either the number of hatched larvae, or the number of hatched and emerged larvae, obtained from 100 cysts, the latter represented by the sum of hatched nauplii (larvae), emerged larvae and undeveloped cysts containing embryos.
The hatching percentage (H %) was calculated according to: […]
The hatching percentage plus (H^+%) was calculated according to: […]
The percent of developed cysts was calculated as described above.

[2] = tested on: diapaused pupae of Heliothis virescens; conditions: 30 min dip
Procedure: The larval stages of the tobacco budworm Heliothis virescens (Lepidoptera: Noctuidae) were reared on an artificial diet at standard conditions of 25° C. and long light conditions with 14 h light (Smagghe G et al., 1994). To produce nondiapause pupae, the larvae were kept at these conditions throughout development, whereas for pupal diapause induction, third instar larvae were transferred to 18° C. and short light conditions of 8 h light. The pupal stemma were examined to check the diapause status as described (Philips J R et al., 1966).
The treatment was done in capped plastic Falcon tubes of 10 ml. Controls were dipped in distilled water. After treatment, pupae were put in 9-cm Petri dishes, lined with a filter paper and kept at 25° C. and 14 h light, and development of adults was scored at daily intervals. Per treatment, 20 pupae were tested. Means±SD were compared to controls with a Student's t-test.

[3] = tested on: eggs with diapaused embryos of Bombyx mori; experiment: Termination of embryonic diapause in eggs dipped in NO donor or HCl; format: in vivo; conditions: SpermineNONOate 1 mM 30 min dip; 20% HCl 5 min 48° C.
Procedure: All experiments were carried out on silkmoth strain Bombyx mori J106 (Lepidoptera: Bombycidae). Larvae were maintained on an artificial diet (Yakuruto Co.) under standard conditions of 25° C., 65% relevant humidity and 16 h light ([…] et al., 2003). Egg batches were collected from a continuous insect colony and used for the experiments. […] The latter treatment is the normally used procedure to break diapause in eggs with diapaused embryos for maintenance of the insect colony of B. mori ([…] et al., 2003). In a water-control, eggs with diapaused embryos were dipped in distilled water only, and in a blank-control, eggs with diapaused were not treated. […] The numbers of eggs with diapaused embryos per treatment (n) are given with the results.

N-[4-[1-(3-aminopropyl)-2-hydroxy-2-nitrosohydrazinobutyl]-1,3-propane diamine [Spermine NONOate]
hatching after 24 hours ([1]; 40 and 60 μM, 24 hours, overcome by 48 hr): less dramatic, but obvious
concentration at which NO donor was most effective on cyst development ([1]; Bolshoye Yarovoye cysts, FIG. 2A-F): 4.0 µM
time to develop into the adult stage ([2]; 1000 μM, control 9.17±0.75 d, p=0.01): 7.60 ± 0.89 days
time to adult stage versus controls ([2]; 10 and 100 μM): similar
Number of developed neonates at day 6 [3]: 28
Number of developed neonates at day 7 [3]: 22
Number of developed neonates at day 8 [3]: 10
Number of developed neonates at day 14 [3]: 0
Number of undeveloped eggs at day 14 [3]: 10
eggs developed into neonate larvae at 6-8 days after treatment (total) [3]: 86%
percentage of developed neonates at day 14 [3]: (0%)
